# Assay results as given in paper PMC5513037, “Examining the influence of specificity ligands and ATP-competitive ligands on the overall effectiveness of bivalent kinase inhibitors” (Proteome Science, 2017).
# Legend:
# Experiment in all cases: KAM-matrix competition in K562 lysate;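 on 0.001 uM KAM: median log10 fold change of treatment over DMSO control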;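 on 0.01 uM KAM: median log10 fold change of treatment over DMSO control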;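 on 0.1 uM KAM: median log10 fold change of treatment over DMSO control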;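 on 1 uM KAM: median log10 fold change of treatment over DMSO control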;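 on 10 uM KAM: median log10 fold change of treatment over DMSO control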
# Type in all cases: binding
# BUB1B = target: T1, BUB1B (Homo sapiens, UniProt O60566);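 on 0.001 uM KAM: median log10 fold change of treatment over DMSO control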;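 on 0.01 uM KAM: median log10 fold change of treatment over DMSO control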;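 on 0.1 uM KAM: median log10 fold change of treatment over DMSO control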;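 on 1 uM KAM: median log10 fold change of treatment over DMSO control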;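 on 10 uM KAM: median log10 fold change of treatment over DMSO control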
# T1 construct: endogenous in cells; host or cells: K562
# Method: (§1) Supplement 12953_2017_125_MOESM1_ESM.zip/MS_Supp Info.xlsx, sheet "KAM" | column: 10 uM KAM; 1 uM KAM; 0.1 uM KAM; 0.01 uM KAM; 0.001 uM KAM; RB50
# SLK = target: T2, SLK (Homo sapiens, UniProt Q9H2G2)
# T2 construct: endogenous in cells; host or cells: K562
# T2 sequence (Q9H2G2 whole entry): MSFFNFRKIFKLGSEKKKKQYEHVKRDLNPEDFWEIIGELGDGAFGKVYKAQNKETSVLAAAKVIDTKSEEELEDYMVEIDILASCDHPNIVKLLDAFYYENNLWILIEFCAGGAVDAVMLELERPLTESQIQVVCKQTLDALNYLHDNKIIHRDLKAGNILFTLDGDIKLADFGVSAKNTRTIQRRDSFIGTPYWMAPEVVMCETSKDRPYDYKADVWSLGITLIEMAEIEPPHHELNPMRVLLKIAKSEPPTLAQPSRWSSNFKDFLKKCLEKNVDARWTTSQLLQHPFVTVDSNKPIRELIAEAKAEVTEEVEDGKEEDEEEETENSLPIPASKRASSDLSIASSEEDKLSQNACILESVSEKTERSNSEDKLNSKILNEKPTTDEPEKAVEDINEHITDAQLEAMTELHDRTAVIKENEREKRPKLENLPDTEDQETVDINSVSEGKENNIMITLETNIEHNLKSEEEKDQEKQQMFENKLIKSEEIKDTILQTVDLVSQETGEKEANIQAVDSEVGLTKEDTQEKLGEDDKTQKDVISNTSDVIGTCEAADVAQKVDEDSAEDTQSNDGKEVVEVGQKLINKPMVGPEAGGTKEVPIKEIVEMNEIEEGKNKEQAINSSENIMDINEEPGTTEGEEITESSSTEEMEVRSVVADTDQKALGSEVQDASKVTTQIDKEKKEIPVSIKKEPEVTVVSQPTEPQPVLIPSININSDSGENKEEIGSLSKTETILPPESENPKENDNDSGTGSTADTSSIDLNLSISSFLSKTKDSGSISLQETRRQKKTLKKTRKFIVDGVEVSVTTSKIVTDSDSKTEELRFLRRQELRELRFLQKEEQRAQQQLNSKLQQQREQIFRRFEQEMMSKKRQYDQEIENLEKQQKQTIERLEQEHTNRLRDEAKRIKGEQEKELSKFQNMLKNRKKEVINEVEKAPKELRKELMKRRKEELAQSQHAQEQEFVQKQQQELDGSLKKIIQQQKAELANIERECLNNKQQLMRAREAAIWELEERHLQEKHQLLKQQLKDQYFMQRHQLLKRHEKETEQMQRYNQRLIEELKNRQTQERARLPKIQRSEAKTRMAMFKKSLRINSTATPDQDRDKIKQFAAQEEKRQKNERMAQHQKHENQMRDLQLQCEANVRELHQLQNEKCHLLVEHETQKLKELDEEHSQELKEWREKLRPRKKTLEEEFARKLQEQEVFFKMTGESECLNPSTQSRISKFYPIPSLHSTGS
# Method: as §1
# PKN3 = target: T3, PKN3 (Homo sapiens, UniProt Q6P5Z2);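 on 0.001 uM KAM: median log10 fold change of treatment over DMSO control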;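 on 0.01 uM KAM: median log10 fold change of treatment over DMSO control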;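 on 0.1 uM KAM: median log10 fold change of treatment over DMSO control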;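 on 1 uM KAM: median log10 fold change of treatment over DMSO control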;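 on 10 uM KAM: median log10 fold change of treatment over DMSO control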
# T3 construct: endogenous in cells; host or cells: K562
# T3 sequence (Q6P5Z2 whole entry): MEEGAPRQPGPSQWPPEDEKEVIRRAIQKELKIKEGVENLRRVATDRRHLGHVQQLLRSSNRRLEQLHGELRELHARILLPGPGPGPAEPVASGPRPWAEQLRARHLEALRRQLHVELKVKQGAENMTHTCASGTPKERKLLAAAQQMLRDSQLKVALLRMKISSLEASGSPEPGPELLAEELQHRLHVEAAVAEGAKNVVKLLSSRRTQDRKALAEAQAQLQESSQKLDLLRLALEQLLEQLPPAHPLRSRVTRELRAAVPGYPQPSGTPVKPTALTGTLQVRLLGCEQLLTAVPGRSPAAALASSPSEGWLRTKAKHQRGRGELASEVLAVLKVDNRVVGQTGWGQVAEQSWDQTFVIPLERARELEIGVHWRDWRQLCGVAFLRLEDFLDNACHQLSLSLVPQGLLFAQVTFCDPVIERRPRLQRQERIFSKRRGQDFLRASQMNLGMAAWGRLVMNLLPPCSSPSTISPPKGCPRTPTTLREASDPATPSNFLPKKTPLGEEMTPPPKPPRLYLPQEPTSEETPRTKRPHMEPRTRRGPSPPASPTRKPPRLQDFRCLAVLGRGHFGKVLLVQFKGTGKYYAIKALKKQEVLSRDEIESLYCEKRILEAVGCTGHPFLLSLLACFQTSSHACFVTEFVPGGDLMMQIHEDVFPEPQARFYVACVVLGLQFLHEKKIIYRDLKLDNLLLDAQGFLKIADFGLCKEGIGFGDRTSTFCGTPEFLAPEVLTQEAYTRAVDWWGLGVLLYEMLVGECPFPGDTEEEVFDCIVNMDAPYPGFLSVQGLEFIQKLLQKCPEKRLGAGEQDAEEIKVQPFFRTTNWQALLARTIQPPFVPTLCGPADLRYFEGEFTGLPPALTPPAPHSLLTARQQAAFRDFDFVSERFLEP
# Method: as §1
# PRPF4B = target: T4, PRPF4B (Homo sapiens, UniProt Q13523)
# T4 construct: endogenous in cells; host or cells: K562
# T4 sequence (Q13523 whole entry): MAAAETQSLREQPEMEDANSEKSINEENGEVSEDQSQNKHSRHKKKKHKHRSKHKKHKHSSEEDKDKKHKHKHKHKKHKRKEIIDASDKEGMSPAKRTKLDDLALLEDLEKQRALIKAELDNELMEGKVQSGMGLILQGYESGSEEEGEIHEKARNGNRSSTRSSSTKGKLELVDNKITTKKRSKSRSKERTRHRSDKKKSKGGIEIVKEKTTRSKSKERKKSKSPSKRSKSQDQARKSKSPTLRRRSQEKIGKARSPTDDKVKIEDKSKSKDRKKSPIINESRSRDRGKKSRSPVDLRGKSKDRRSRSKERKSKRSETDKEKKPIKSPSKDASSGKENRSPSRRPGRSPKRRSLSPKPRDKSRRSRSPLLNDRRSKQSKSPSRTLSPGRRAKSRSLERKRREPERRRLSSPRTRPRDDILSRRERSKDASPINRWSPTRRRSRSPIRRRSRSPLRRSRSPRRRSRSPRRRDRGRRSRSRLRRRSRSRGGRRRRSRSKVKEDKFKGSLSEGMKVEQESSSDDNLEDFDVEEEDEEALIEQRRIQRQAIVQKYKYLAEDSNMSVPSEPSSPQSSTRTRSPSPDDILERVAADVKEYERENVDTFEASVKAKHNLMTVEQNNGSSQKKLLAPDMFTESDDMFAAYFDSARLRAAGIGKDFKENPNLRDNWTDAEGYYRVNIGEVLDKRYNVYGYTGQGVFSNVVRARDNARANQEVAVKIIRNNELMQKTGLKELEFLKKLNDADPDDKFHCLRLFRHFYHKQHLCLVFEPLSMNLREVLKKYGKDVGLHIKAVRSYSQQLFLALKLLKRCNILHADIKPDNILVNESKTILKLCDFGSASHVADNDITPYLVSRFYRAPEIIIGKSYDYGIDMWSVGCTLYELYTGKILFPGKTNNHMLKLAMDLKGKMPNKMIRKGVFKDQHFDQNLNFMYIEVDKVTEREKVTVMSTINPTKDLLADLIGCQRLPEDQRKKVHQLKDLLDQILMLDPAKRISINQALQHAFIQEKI
# Method: as §1
# AURKC = target: T5, AURKC (Homo sapiens, UniProt Q9UQB9)
# T5 construct: endogenous in cells; host or cells: K562
# T5 sequence (Q9UQB9 1-309): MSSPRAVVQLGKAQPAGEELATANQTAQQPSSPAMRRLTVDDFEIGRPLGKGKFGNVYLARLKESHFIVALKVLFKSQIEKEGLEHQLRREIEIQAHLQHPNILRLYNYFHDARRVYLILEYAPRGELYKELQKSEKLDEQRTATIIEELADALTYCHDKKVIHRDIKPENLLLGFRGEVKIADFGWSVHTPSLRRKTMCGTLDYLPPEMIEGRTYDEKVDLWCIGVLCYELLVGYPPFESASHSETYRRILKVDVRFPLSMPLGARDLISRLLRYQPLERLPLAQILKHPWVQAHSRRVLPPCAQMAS
# Method: as §1
# CDK13 = target: T6, CDK13 (Homo sapiens, UniProt Q14004)
# T6 construct: endogenous in cells; host or cells: K562
# Method: as §1
# DDR1 = target: T7, DDR1 (Homo sapiens, UniProt Q08345)
# T7 construct: endogenous in cells; host or cells: K562
# T7 sequence (Q08345 19-913): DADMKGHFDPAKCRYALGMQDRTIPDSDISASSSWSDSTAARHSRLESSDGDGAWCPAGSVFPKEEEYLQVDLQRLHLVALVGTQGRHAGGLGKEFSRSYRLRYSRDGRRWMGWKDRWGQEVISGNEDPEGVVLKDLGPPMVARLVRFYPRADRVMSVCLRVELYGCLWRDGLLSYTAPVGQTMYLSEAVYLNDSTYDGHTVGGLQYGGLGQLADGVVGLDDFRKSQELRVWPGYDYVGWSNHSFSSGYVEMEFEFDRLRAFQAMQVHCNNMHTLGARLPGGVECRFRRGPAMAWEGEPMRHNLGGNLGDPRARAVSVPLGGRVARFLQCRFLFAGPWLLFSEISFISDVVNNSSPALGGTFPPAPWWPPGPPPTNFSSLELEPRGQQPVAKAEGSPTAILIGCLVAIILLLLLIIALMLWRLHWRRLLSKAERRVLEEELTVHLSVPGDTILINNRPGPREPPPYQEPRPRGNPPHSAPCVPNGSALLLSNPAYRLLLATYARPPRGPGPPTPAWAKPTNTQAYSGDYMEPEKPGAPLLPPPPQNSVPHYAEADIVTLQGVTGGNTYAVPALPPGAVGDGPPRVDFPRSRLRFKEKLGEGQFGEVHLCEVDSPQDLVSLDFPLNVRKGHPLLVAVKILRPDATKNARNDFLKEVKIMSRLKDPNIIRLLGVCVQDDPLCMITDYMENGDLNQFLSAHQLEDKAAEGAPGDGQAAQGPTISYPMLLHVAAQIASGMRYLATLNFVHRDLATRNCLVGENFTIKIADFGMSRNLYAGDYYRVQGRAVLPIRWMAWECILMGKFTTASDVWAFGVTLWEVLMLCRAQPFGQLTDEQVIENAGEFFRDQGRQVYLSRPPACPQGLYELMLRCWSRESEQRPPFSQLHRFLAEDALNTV
# Method: as §1
# OBSCN = target: T8, OBSCN (Homo sapiens, UniProt Q5VST9);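 on 0.001 uM KAM: median log10 fold change of treatment over DMSO control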;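 on 0.01 uM KAM: median log10 fold change of treatment over DMSO control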;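 on 0.1 uM KAM: median log10 fold change of treatment over DMSO control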;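 on 1 uM KAM: median log10 fold change of treatment over DMSO control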;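 on 10 uM KAM: median log10 fold change of treatment over DMSO control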
# T8 construct: endogenous in cells; host or cells: K562
# Method: as §1
# RPS6KA1 = target: T9, RPS6KA1 (Homo sapiens, UniProt Q15418);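 on 0.001 uM KAM: median log10 fold change of treatment over DMSO control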;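 on 0.01 uM KAM: median log10 fold change of treatment over DMSO control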;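 on 0.1 uM KAM: median log10 fold change of treatment over DMSO control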;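 on 1 uM KAM: median log10 fold change of treatment over DMSO control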;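 on 10 uM KAM: median log10 fold change of treatment over DMSO control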
# T9 construct: endogenous in cells; host or cells: K562
# Method: as §1
# PLK1 = target: T10, PLK1 (Homo sapiens, UniProt P53350);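 on 0.001 uM KAM: median log10 fold change of treatment over DMSO control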;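 on 0.01 uM KAM: median log10 fold change of treatment over DMSO control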;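 on 0.1 uM KAM: median log10 fold change of treatment over DMSO control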;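 on 1 uM KAM: median log10 fold change of treatment over DMSO control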;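 on 10 uM KAM: median log10 fold change of treatment over DMSO control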
# T10 construct: endogenous in cells; host or cells: K562
# T10 sequence (P53350 whole entry): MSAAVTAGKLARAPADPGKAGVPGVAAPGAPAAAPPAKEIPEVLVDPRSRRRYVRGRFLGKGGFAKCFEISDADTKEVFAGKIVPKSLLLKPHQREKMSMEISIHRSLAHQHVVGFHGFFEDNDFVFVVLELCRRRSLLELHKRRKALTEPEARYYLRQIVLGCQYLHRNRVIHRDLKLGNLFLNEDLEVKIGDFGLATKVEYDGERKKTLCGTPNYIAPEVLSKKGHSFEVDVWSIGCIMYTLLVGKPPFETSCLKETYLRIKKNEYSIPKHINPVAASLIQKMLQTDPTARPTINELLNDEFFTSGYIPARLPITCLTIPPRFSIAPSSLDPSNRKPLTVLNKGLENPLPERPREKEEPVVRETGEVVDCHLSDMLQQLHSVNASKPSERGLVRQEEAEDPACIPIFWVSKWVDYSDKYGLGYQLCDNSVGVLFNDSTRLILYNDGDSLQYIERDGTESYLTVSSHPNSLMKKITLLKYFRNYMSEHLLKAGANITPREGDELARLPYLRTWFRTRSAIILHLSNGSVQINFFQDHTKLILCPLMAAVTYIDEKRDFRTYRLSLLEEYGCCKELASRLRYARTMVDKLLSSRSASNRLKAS
# Method: as §1
# ACVR2B = target: T11, ACVR2B (Homo sapiens, UniProt Q13705);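 on 0.001 uM KAM: median log10 fold change of treatment over DMSO control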;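 on 0.01 uM KAM: median log10 fold change of treatment over DMSO control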;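 on 0.1 uM KAM: median log10 fold change of treatment over DMSO control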;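 on 1 uM KAM: median log10 fold change of treatment over DMSO control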;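 on 10 uM KAM: median log10 fold change of treatment over DMSO control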
# T11 construct: endogenous in cells; host or cells: K562 cell lysate
# Method: as §1
# SPEG = target: T12, SPEG (Homo sapiens, UniProt Q15772);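 on 0.001 uM KAM: median log10 fold change of treatment over DMSO control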;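 on 0.01 uM KAM: median log10 fold change of treatment over DMSO control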;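 on 0.1 uM KAM: median log10 fold change of treatment over DMSO control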;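 on 1 uM KAM: median log10 fold change of treatment over DMSO control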;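 on 10 uM KAM: median log10 fold change of treatment over DMSO control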
# T12 construct: endogenous in cells; host or cells: K562
# Method: as §1
# PRKAA1 = target: T13, PRKAA1 (Homo sapiens, UniProt Q13131)
# T13 construct: endogenous in cells; host or cells: K562
# Method: as §1
# [1] = KAM 0.001-10 uM, read-out: RB50 (the source's name)
# [2] = read-out: RB50 (the source's name)
smiles,measurement,setting,value
N#CCc1ccc(Nc2nc(NCCCN)cc(Nc3cc(C4CC4)[nH]n3)n2)cc1 [KAM],IC50,BUB1B; [1],> 10 µM
same,0.001 uM KAM,BUB1B; relative to 0 uM KAM = 0,-0.0187
same,0.01 uM KAM,BUB1B; relative to 0 uM KAM = 0,-0.008778
same,0.1 uM KAM,BUB1B; relative to 0 uM KAM = 0,-0.0591
same,1 uM KAM,BUB1B; relative to 0 uM KAM = 0,-0.007813
same,10 uM KAM,BUB1B; relative to 0 uM KAM = 0,-0.008689
same,median Log10 fold change,SLK; 0.001 uM KAM,0.008335
same,median Log10 fold change,SLK; 0.01 uM KAM,-0.005793
same,median Log10 fold change,SLK; 0.1 uM KAM,-0.3118
same,median Log10 fold change,SLK; 1 uM KAM,-0.5551
same,median Log10 fold change,SLK; 10 uM KAM,-0.6917
same,IC50,SLK; [2],0.139 µM
same,IC50,PKN3; [1],> 10 µM
same,0.001 uM KAM,PKN3; relative to 0 uM KAM = 0,0.01928
same,0.01 uM KAM,PKN3; relative to 0 uM KAM = 0,0.02728
same,0.1 uM KAM,PKN3; relative to 0 uM KAM = 0,-0.02092
same,1 uM KAM,PKN3; relative to 0 uM KAM = 0,-0.1078
same,10 uM KAM,PKN3; relative to 0 uM KAM = 0,-0.2223
same,median Log10 fold change,PRPF4B; 0.001 uM KAM,-0.03755
same,median Log10 fold change,PRPF4B; 0.01 uM KAM,-0.07792
same,median Log10 fold change,PRPF4B; 0.1 uM KAM,-0.1894
same,median Log10 fold change,PRPF4B; 1 uM KAM,-0.2633
same,median Log10 fold change,PRPF4B; 10 uM KAM,-0.4136
same,IC50,PRPF4B; [2],1.4 µM
same,median Log10 fold change,AURKC; 0.001 uM KAM,0.0006126
same,median Log10 fold change,AURKC; 0.01 uM KAM,-0.1035
same,median Log10 fold change,AURKC; 0.1 uM KAM,-0.4123
same,median Log10 fold change,AURKC; 1 uM KAM,-0.4901
same,median Log10 fold change,AURKC; 10 uM KAM,-0.3419
same,IC50,AURKC; [2],0.075 µM
same,median Log10 fold change,CDK13; 0.001 uM KAM,-0.01353
same,median Log10 fold change,CDK13; 0.01 uM KAM,-0.006338
same,median Log10 fold change,CDK13; 0.1 uM KAM,-0.0866
same,median Log10 fold change,CDK13; 1 uM KAM,-0.2891
same,median Log10 fold change,CDK13; 10 uM KAM,-0.4319
same,IC50,CDK13; [2],1.48 µM
same,median Log10 fold change,DDR1; 0.001 uM KAM,-0.02436
same,median Log10 fold change,DDR1; 0.01 uM KAM,-0.004539
same,median Log10 fold change,DDR1; 0.1 uM KAM,-0.13
same,median Log10 fold change,DDR1; 1 uM KAM,-0.3025
same,median Log10 fold change,DDR1; 10 uM KAM,-0.3889
same,IC50,DDR1; [2],1.33 µM
same,IC50,OBSCN; [1],> 10 µM
same,0.001 uM KAM,OBSCN; relative to 0 uM KAM = 0,-0.03363
same,0.01 uM KAM,OBSCN; relative to 0 uM KAM = 0,0.02355
same,0.1 uM KAM,OBSCN; relative to 0 uM KAM = 0,-0.066
same,1 uM KAM,OBSCN; relative to 0 uM KAM = 0,-0.08935
same,10 uM KAM,OBSCN; relative to 0 uM KAM = 0,-0.04979
same,IC50,RPS6KA1; [1],> 10 µM
same,0.001 uM KAM,RPS6KA1; relative to 0 uM KAM = 0,-0.05187
same,0.01 uM KAM,RPS6KA1; relative to 0 uM KAM = 0,0.03804
same,0.1 uM KAM,RPS6KA1; relative to 0 uM KAM = 0,-0.06196
same,1 uM KAM,RPS6KA1; relative to 0 uM KAM = 0,-0.09025
same,10 uM KAM,RPS6KA1; relative to 0 uM KAM = 0,-0.1209
same,IC50,PLK1; [1],> 10 µM
same,0.001 uM KAM,PLK1; relative to 0 uM KAM = 0,-0.04372
same,0.01 uM KAM,PLK1; relative to 0 uM KAM = 0,0.0006975
same,0.1 uM KAM,PLK1; relative to 0 uM KAM = 0,-0.07002
same,1 uM KAM,PLK1; relative to 0 uM KAM = 0,-0.1195
same,10 uM KAM,PLK1; relative to 0 uM KAM = 0,-0.1377
same,IC50,ACVR2B; [1],> 10 µM
same,0.001 uM KAM,ACVR2B; relative to 0 uM KAM = 0,0.02766
same,0.01 uM KAM,ACVR2B; relative to 0 uM KAM = 0,-0.009918
same,0.1 uM KAM,ACVR2B; relative to 0 uM KAM = 0,-0.09138
same,1 uM KAM,ACVR2B; relative to 0 uM KAM = 0,-0.2794
same,10 uM KAM,ACVR2B; relative to 0 uM KAM = 0,-0.2958
same,IC50,SPEG; [1],> 10 µM
same,0.001 uM KAM,SPEG; relative to 0 uM KAM = 0,-0.04699
same,0.01 uM KAM,SPEG; relative to 0 uM KAM = 0,0.03576
same,0.1 uM KAM,SPEG; relative to 0 uM KAM = 0,-0.007872
same,1 uM KAM,SPEG; relative to 0 uM KAM = 0,0.04064
same,10 uM KAM,SPEG; relative to 0 uM KAM = 0,0.01523
same,median Log10 fold change,PRKAA1; 0.001 uM KAM,0.006818
same,median Log10 fold change,PRKAA1; 0.01 uM KAM,-0.02218
same,median Log10 fold change,PRKAA1; 0.1 uM KAM,-0.1974
same,median Log10 fold change,PRKAA1; 1 uM KAM,-0.5073
same,median Log10 fold change,PRKAA1; 10 uM KAM,-0.6565
same,IC50,PRKAA1; [2],0.284 µM
